# Measurements: PubChem BioAssay AID2060487 (Molecular Pharmacology Branch, DTP, NCI, 2025)
# Values joined by “and” are separate entries in the source; they are usually repeats but may differ in a detail not shown here. Equal entries are not always repeated.
# System: 997537-175-T-J1-PDC complex spheroid viability
# Assay: Anticancer human tumor 997537-175-T-J1-PDC patient-derived colon adenocarcinoma cell line growth inhibition [GQUAD]
# Details: for viability, T/C: stronger effect = lower value
# Source text: DNA G-quadruplex Stabilizer Agents in Combinations in Complex Spheroids
# A high-throughput screen of multi-cell type tumor spheroids was designed to identify active combinations of DNA G-quadruplex stabilizer agents and targeted small molecules. Complex spheroids include a stromal component modeled by human endothelial cells (HUVEC) and fibroblasts modeled by human mesenchymal stem cells (MSCs). The concentration ranges selected for each drug and investigational agent were based upon clinically achievable concentrations if the clinical Cmax of the agent was known.
# Compounds. The drugs and investigational agents: pidnarulex (CX-5461; NSC782164), APTO-253 (NSC789042), BRACO-19 (NSC847499), peposertib (NSC802822), ceralasertib (NSC780249), elimusertib (NSC800525), camonsertib (NSC841442), AZD-1390 (NSC803789), olaparib (NSC753686), talazoparib (NSC767125), ART-558 (NSC835418), sotorasib (NSC818433), MRTX-1133 (NSC836407), SN-38 (NSC673596), topotecan (NSC609699), etoposide (NSC141540), doxorubicin (NSC123127), gemcitabine (NSC613327), 5-fluorouracil (NSC19893), paclitaxel (NSC125973), vemurafenib (NSC761431), panobinostat (NSC761190), R-306465 (JNJ-16241199; NSC773264), adavosertib (NSC754352), TP-3654 (NSC805149), carboplatin (NSC241240), KSQ-4279 (NSC840948), and staurosporine (NSC755774) were obtained from the National Cancer Institute (NCI) Developmental Therapeutics Program Chemical Repository (34). The FDA-approved anticancer drug set is available from the NCI Developmental Therapeutics Program. […] The stock solutions were prepared in dimethyl sulfoxide (DMSO, Sigma-Aldrich, St. Louis, MO, cat. D2650) at 800-fold the tested concentration and stored at -70 degrees C prior to their use. All drugs and investigational agents were tested over a range starting from a high concentration at or near the clinical Cmax and decreasing in half-log increments. If the clinical Cmax for an agent had not been determined, the highest concentration tested was 10 microM.
# 2.3 Cell Culture. All cells were maintained in an incubator at 37 degrees C and 5% CO2 with 95% humidity. The PDC lines were cultured according to standard operating procedures established by the NCI PDMR. All PDCs were thawed and cultured in Matrigel-coated flasks prepared with a working solution of 1X Ham's F-12 nutrient mix, without supplementation (Invitrogen, cat. 11765054), 100 U/mL penicillin-streptomycin (Invitrogen, cat. 15140122), and 2.5% Matrigel (Corning Inc., cat. 354248) for the first three passages. The 857933-349-R-J2-PDC line was cultured in 6C/Colon 1B media, which includes advanced DMEM/F-12 (Thermo Fisher Scientific, cat. 12634028), 10 mM HEPES (Thermo Fisher Scientific, cat. 15630080), 1X GlutaMAX supplement (Thermo Fisher Scientific, cat. 35050061), 0.1 mg/mL primocin (InvivoGen, cat. ant-pm-2), 10% defined fetal bovine serum, heat inactivated (HyClone Laboratories Inc., cat. SH30070.03HI), 50% L-WRN conditioned media (ATCC, cat. CRL-3276), 1.25 mM N-Acetyl-L-cysteine (Sigma-Aldrich, cat. A9165), 10 mM nicotinamide (Sigma-Aldrich, cat. N0636), 1X B-27 supplement (Thermo Fisher Scientific, cat. 17504044), 1X N-2 supplement (Thermo Fisher Scientific, cat. 17502048), 10 microM Y-27632 dihydrochloride (Tocris Bioscience, cat. 1254), and 50 ng/mL human EGF recombinant protein (Thermo Fisher Scientific, cat. PHG0311). The 485176-168-R4-J1-PDC line was cultured in Panc media, which includes all 6C/Colon 1B media components plus 100 ng/mL human FGF-10 (Thermo Fisher Scientific, cat. 100-26), 500 nM SB-431542 (Selleckchem, cat. S1067), and gastrin (Tocris, cat. 3006).
# […]
# [1] = curve of first compound, second compound 0.0316 µM
# [2] = curve of first compound, second compound 0.1 µM
# [3] = curve of first compound, second compound 0.316 µM
# [4] = curve of first compound, second compound 1 µM
# [5] = curve of first compound, second compound 3.16 µM
# [6] = curve of first compound, second compound 10 µM
# [7] = second compound 0.0316 µM, first compound 0.0316 µM
# [8] = second compound 0.0316 µM, first compound 0.1 µM
# [9] = second compound 0.0316 µM, first compound 0.316 µM
# [10] = second compound 0.0316 µM, first compound 1 µM
# [11] = second compound 0.0316 µM, first compound 3.16 µM
# [12] = second compound 0.0316 µM, first compound 10 µM
# [13] = second compound 0.1 µM, first compound 0.0316 µM
# [14] = second compound 0.1 µM, first compound 0.1 µM
# [15] = second compound 0.1 µM, first compound 0.316 µM
# [16] = second compound 0.1 µM, first compound 1 µM
# [17] = second compound 0.1 µM, first compound 3.16 µM
# [18] = second compound 0.1 µM, first compound 10 µM
# [19] = second compound 0.316 µM, first compound 0.0316 µM
# [20] = second compound 0.316 µM, first compound 0.1 µM
# [21] = second compound 0.316 µM, first compound 0.316 µM
# [22] = second compound 0.316 µM, first compound 1 µM
# [23] = second compound 0.316 µM, first compound 3.16 µM
# [24] = second compound 0.316 µM, first compound 10 µM
# [25] = second compound 1 µM, first compound 0.0316 µM
# [26] = second compound 1 µM, first compound 0.1 µM
# [27] = second compound 1 µM, first compound 0.316 µM
# [28] = second compound 1 µM, first compound 1 µM
# [29] = second compound 1 µM, first compound 3.16 µM
# [30] = second compound 1 µM, first compound 10 µM
# [31] = second compound 3.16 µM, first compound 0.0316 µM
# [32] = second compound 3.16 µM, first compound 0.1 µM
# [33] = second compound 3.16 µM, first compound 0.316 µM
# [34] = second compound 3.16 µM, first compound 1 µM
# [35] = second compound 3.16 µM, first compound 3.16 µM
# [36] = second compound 3.16 µM, first compound 10 µM
# [37] = second compound 10 µM, first compound 0.0316 µM
# [38] = second compound 10 µM, first compound 0.1 µM
# [39] = second compound 10 µM, first compound 0.316 µM
# [40] = second compound 10 µM, first compound 1 µM
# [41] = second compound 10 µM, first compound 3.16 µM
# [42] = second compound 10 µM, first compound 10 µM
# 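Note: spheroids exposed to the agents for 7 days.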
# 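Throughout, for viability, T/C: 100% = DMSO vehicle control viability.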
compound,measurement,setting,value
O=C(NO)c1cnc(N2CCN(S(=O)(=O)c3ccc4ccccc4c3)CC2)nc1 + Cc1[nH]c2ccc(F)cc2c1-c1nc2c3cccnc3c3ncccc3c2[nH]1,IC50,[1],0.0892 µM
same,IC50,[2],0.134 µM
same,IC50,[3],0.0915 µM
same,IC50,[4],0.0878 µM
same,IC50,[5],0.043 µM
same,IC50,[6],< 0.0316 µM
same,"viability, T/C",[7],93.7%
same,"viability, T/C",[8],45.1%
same,"viability, T/C",[9],19.4%
same,"viability, T/C",[10],35.4%
same,"viability, T/C",[11],39.2%
same,"viability, T/C",[12],21.7%
same,"viability, T/C",[13],73.6%
same,"viability, T/C",[14],56.2%
same,"viability, T/C",[15],31.2%
same,"viability, T/C",[16],32.7%
same,"viability, T/C",[17],20.9%
same,"viability, T/C",[18],42.4%
same,"viability, T/C",[19],78.8%
same,"viability, T/C",[20],43.4%
same,"viability, T/C",[21],52.3%
same,"viability, T/C",[22],31.8%
same,"viability, T/C",[23],42.2%
same,"viability, T/C",[24],34.8%
same,"viability, T/C",[25],74.4%
same,"viability, T/C",[26],44.5%
same,"viability, T/C",[27],37.6%
same,"viability, T/C",[28],29.4%
same,"viability, T/C",[29],23.6%
same,"viability, T/C",[30],26.2%
same,"viability, T/C",[31],55.9%
same,"viability, T/C",[32],33.5%
same,"viability, T/C",[33],30.5%
same,"viability, T/C",[34],24.8%
same,"viability, T/C",[35],25.6%
same,"viability, T/C",[36],19.4%
same,"viability, T/C",[37],45.1%
same,"viability, T/C",[38],16.1%
same,"viability, T/C",[39],10.4%
same,"viability, T/C",[40],19.8%
same,"viability, T/C",[41],16.6%
same,"viability, T/C",[42],18%
O=C(c1cc(Cc2n[nH]c(=O)c3ccccc23)ccc1F)N1CCN(C(=O)C2CC2)CC1,"viability, T/C",compound 0.0316 µM,106% and 94.3% and 90.2%
same,"viability, T/C",compound 0.1 µM,88% and 96.7% and 102%
same,"viability, T/C",compound 0.316 µM,94.6% and 102% and 107%
same,"viability, T/C",compound 1 µM,104% and 92.4% and 103%
same,"viability, T/C",compound 3.16 µM,102% and 64.4% and 79.6%
same,"viability, T/C",compound 10 µM,85.2% and 87.2% and 96.7%
same,IC50,curve of compound,> 10 µM
CC(=O)O[C@H]1C(=O)[C@@]2(C)[C@H]([C@H](OC(=O)c3ccccc3)[C@]3(O)C[C@H](OC(=O)[C@H](O)[C@@H](NC(=O)c4ccccc4)c4ccccc4)C(C)=C1C3(C)C)[C@]1(OC(C)=O)CO[C@@H]1C[C@@H]2O + Cc1[nH]c2ccc(F)cc2c1-c1nc2c3cccnc3c3ncccc3c2[nH]1,IC50,[1],2.8 µM
same,IC50,[2],4.12 µM
same,IC50,[3],4.51 µM
same,IC50,[4],3.63 µM
same,IC50,[5],2.19 µM
same,IC50,[6],1.97 µM
same,"viability, T/C",[7],97.5%
same,"viability, T/C",[8],93.3%
same,"viability, T/C",[9],80.5%
same,"viability, T/C",[10],92.1%
same,"viability, T/C",[11],45.2%
same,"viability, T/C",[12],0.33%
same,"viability, T/C",[13],102%
same,"viability, T/C",[14],106%
same,"viability, T/C",[15],86.6%
same,"viability, T/C",[16],90.9%
same,"viability, T/C",[17],65.6%
same,"viability, T/C",[18],0.32%
same,"viability, T/C",[19],113%
same,"viability, T/C",[20],91%
same,"viability, T/C",[21],85.7%
same,"viability, T/C",[22],87.7%
same,"viability, T/C",[23],75.5%
same,"viability, T/C",[24],0.3%
same,"viability, T/C",[25],94.1%
same,"viability, T/C",[26],93.3%
same,"viability, T/C",[27],96.2%
same,"viability, T/C",[28],89.8%
same,"viability, T/C",[29],56.8%
same,"viability, T/C",[30],0.2%
same,"viability, T/C",[31],83.7%
same,"viability, T/C",[32],93.3%
same,"viability, T/C",[33],96.7%
same,"viability, T/C",[34],84.8%
same,"viability, T/C",[35],33.4%
same,"viability, T/C",[36],0.38%
same,"viability, T/C",[37],78.5%
same,"viability, T/C",[38],90.1%
same,"viability, T/C",[39],77.2%
same,"viability, T/C",[40],78%
same,"viability, T/C",[41],30.7%
same,"viability, T/C",[42],0.47%
